pEC50: −log10 of the molar value.

Assay [1] has as its target Cel-DAF-12 (DAF-12) (Caenorhabditis elegans, UniProt G5EFF5). The experiment in a line: co-transfection luciferase reporter assay in HEK293 cells (agonist, dose response in Fig. 1b). The class given is cell-based.
Assay [2] has as its system Nbr-DAF-12 (DAF-12 nuclear hormone receptor). Description: co-transfection luciferase reporter assay in HEK293 cells (agonist).

Sequence of Cel-DAF-12 (DAF-12) (G5EFF5 whole entry): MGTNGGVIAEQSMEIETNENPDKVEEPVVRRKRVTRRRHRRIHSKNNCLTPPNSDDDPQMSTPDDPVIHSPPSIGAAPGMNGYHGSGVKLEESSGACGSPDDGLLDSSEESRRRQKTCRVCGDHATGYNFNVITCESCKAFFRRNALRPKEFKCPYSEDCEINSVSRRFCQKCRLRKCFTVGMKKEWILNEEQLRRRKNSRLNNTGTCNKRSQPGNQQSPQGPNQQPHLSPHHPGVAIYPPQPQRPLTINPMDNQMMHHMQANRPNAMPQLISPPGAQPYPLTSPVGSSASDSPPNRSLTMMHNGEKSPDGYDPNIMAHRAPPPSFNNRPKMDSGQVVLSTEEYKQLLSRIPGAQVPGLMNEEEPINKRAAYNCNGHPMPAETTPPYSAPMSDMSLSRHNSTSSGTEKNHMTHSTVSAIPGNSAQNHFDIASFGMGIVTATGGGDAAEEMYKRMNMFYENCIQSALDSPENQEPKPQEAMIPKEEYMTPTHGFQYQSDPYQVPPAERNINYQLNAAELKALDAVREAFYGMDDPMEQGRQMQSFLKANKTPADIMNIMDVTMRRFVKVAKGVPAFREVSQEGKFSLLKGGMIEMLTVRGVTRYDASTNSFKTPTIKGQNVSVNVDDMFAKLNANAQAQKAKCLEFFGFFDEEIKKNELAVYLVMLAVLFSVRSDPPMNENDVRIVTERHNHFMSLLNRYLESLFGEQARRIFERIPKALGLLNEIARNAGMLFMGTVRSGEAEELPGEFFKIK

With Δ7-dafachronic acid, the “co-transfection luciferase reporter assay in HEK293 cells (agonist, dose respons)” value in assay [1] is reported as “responds more weakly to Δ7-dafachronic acid than DAF-12 from either the canine hookworm A. caninum (Aca-DAF-12) or the free-living C. elegans”. For the same substance, in assay [2], the pEC50 was 6.94.

Source of the values: publication PMC7110753, “Dafachronic acid and temperature regulate canonical dauer pathways during Nippostrongylus brasiliensis infectious larvae activation” (Parasites & Vectors, 2020).
